The target of this assay is human SSTR2 (Homo sapiens (Human), UniProt P30874). Put plainly: Human SSTR2 intracellular cAMP functional assay for agonists (CHO-K1 cells, HTRF). It is filed as cell-based. To be noted: inhibition of cAMP activities via human SST2R; CHO-K1 cells stably expressing human SSTR2. Here is the method: Functional Assay for SSTR2 Agonists
General overview: All five SSTR subtypes are Gi coupled G-protein coupled receptors (GPCRs) that lead to decreases in intracellular cyclic AMP (cAMP) when activated by an agonist. […] Human SSTR2 intracellular cAMP assay is described below. The human SSTR1, 3, 4 and 5 assays follow the same protocol of SSTR2.
The cells are cultured at 37° C., 5% CO2 and 95% humidity. […] The cells are incubated for 20 minutes at 37° C. […] The cells are treated with 50 μL of lysis buffer (HRTF cAMP kit, Cisbio). […] The time-resolved fluorescent signal is read with a Tecan M1000Pro multiplate reader. The intracellular cAMP concentrations are calculated by regression to a standard curve and are plotted vs. the concentration of the compounds of the invention and the EC50 of the compounds are calculated using standard methods. All data manipluations are in GraphPad Prism v6.

These results are taken from patent publication US10597377B2, “Somatostatin modulators and uses thereof” (priority 2016, dated 2020).

Sequence of human SSTR2 (P30874 whole entry): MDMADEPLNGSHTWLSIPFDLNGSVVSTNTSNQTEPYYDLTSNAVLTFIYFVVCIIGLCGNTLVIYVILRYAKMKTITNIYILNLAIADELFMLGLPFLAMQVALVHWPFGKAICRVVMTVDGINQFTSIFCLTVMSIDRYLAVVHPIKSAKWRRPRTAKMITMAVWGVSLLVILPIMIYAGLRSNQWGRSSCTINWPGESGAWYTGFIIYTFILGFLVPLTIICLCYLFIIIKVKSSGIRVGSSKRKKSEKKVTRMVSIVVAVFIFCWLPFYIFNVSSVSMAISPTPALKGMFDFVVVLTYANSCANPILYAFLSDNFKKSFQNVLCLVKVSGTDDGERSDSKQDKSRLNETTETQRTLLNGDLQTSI

With `C#Cc1ccnc(-c2ccc3ncc(-c4cc(F)cc(F)c4)c(N4CC[C@H]5NCCO[C@@H]5C4)c3c2)c1N` [2-277, 2-{4-[trans-octahydro-1H-pyrido[3,4-b]morpholin-6-yl]-3-(3,5-difluorophenyl)quinolin-6-yl]-4-ethynylpyridin-3-amine], the EC50 was under 10 nM. With `COC(=O)Nc1c(F)cncc1-c1ccc2ncc(-c3cc(C)cc(F)c3)c(N3CCC(N)CC3)c2c1` [2-171, methyl N-{3-[4-(4-aminopiperidin-1-yl)-3-(3-fluoro-5-methylphenyl)quinolin-6-yl]-5-fluoropyridin-4-yl}carbamate] the figure was under 10 nM; with `Nc1ncccc1-c1ccc2ncc(-c3cc(F)cc(F)c3)c(N3CC[C@H]4NCCO[C@@H]4C3)c2c1` (racemic) [2-246], under 10 nM. With `N#Cc1cncc(-c2ccc3ncc(-c4cc(F)cc(F)c4)c(N4CC[C@H]5NCCO[C@@H]5C4)c3c2)c1N` (racemic) [2-244, 5-{4-[trans-octahydro-1H-pyrido[3,4-b]morpholin-6-yl]-3-(3,5-difluorophenyl)quinolin-6-yl}-4-aminopyridine-3-carbonitrile], the EC50 was under 10 nM.

As for `Cc1cc(F)cc(-c2cnc3ccc(-c4cc(F)cc(C#N)c4O)nc3c2N2CCC(N)CC2)c1` [3-2, 3-[8-(4-aminopiperidin-1-yl)-7-(3-fluoro-5-methylphenyl)-1,5-naphthyridin-2-yl]-5-fluoro-2-hydroxybenzonitrile], the EC50 is under 10 nM. Compound `Cc1cc(F)cc(-c2nnc3cc(Cl)c(-c4cc(F)cc(C(N)=O)c4)cc3c2N2CC[C@@H](N)[C@H](O)C2)c1` (relative stereo) [1-26, 3-{4-[trans-4-amino-3-hydroxypiperidin-1-yl]-7-chloro-3-(3-fluoro-5-methylphenyl)cinnolin-6-yl}-5-fluorobenzamide] came in with an EC50 of under 10 nM. Compound `COC(=O)Nc1ncc(F)cc1-c1ccc2ncc(-c3cc(C)cc(F)c3)c(N3CCC(N)CC3)c2c1` [2-182, methyl N-{3-[4-(4-aminopiperidin-1-yl)-3-(3-fluoro-5-methylphenyl)quinolin-6-yl]-5-fluoropyridin-2-yl}carbamate] came in with an EC50 of under 10 nM.
